Source: publication PMC9289885, “Antimicrobial Peptides against Multidrug-Resistant Pseudomonas aeruginosa Biofilm from Cystic Fibrosis Patients” (Journal of Medicinal Chemistry, 2022)
Where two headings read alike, the source gives them in different places.

What was measured:
[1] = in vitro; conditions: pooled CF patient sputum diluted 10-fold with PBS, supernatant, 100 μM peptide, 37 °C
Description: (§1) The peptide stability in CF patient sputum was tested as previously described.[52] Briefly, individual sputum samples from CF patients were pooled and diluted 10-fold with Dulbecco’s phosphate-buffered saline without calcium and magnesium. The suspensions were thoroughly mixed and then centrifuged at 1000 rpm for 10 min. D,L-K6L9 peptides and LL-37 were added to the supernatant to a final concentration of 100 μM, and the mixture was incubated at 37 °C for several time intervals. The reaction was stopped by adding 10 μL of 10% hydrogen chloride (HCl) to the 55 μL mixture. Residual peptide concentrations were determined via RP-HPLC on a Vydac C18 column (Grace Discovery Sciences, Deerfield, IL) using a linear gradient from 20% to 60% ACN in water (both containing 0.1% TFA) for 50 min. Data are presented as a percentage of peptide compared to the mixture without incubation ± standard errors.

[2] = system: CF sputum proteases; assay: in vitro; conditions: human, supernatant of pooled CF patient sputum, diluted 10-fold
Description: as §1

[3] = system: P. aeruginosa CF patient isolates and PAO1; format: cell-based, Pseudomonas aeruginosa; conditions: PAO1, 24 h
Description: The MIC of the peptides was tested as previously described with minor adjustments.[50],[51] Briefly, peptide activity was examined in sterile 96-well polystyrene plates (Bar-Naor BN36010096D). Overnight cultures of P. aeruginosa were washed and resuspended in a BM2 medium. Aliquots of 50 μL of suspended bacteria (1 × 10^6 CFU/mL) were added to 50 μL of BM2 medium containing peptides in serial 2-fold dilutions (final concentration between 0.78 and 50 μM). Plates were incubated for 24 h at 37 °C while being agitated. Inhibition of growth was assessed by absorbance measurements at OD600 using a microplate auto reader. The MIC was defined as the concentration at which 90% inhibition of growth was observed after incubation for 24 h.

[4] = system: P. aeruginosa clinical CF isolates biofilm; format: cell-based, Pseudomonas aeruginosa; conditions: 24 h
Description: The biofilm formation assay was performed as described for the MIC assay with some alterations and used either BM2 or CF patient sputum diluted 10-fold with BM2. Plates containing peptides at serial dilutions and bacteria were incubated for 24 h at 37 °C without agitation to allow biofilm formation. Unattached bacteria were then washed from plates, and the plates stained with 0.1% CV, followed by absorbance measurements at OD590 using a microplate auto reader. Data are presented as a percentage of the biofilm biomass compared to biofilm formed by untreated bacteria ± the standard error.

[5] = system: mammalian cells; conditions: cited from earlier work
Source text: We investigated the antibiofilm and antimicrobial activities of a series of peptides containing nine leucines and six lysines each, with a net charge of +7 (Table 1).

[6] = system: P. aeruginosa CF isolates and PAO1; format: cell-based, Pseudomonas aeruginosa; conditions: 10 μM peptide, 1 h, 37 °C
Description: The suspensions were thoroughly mixed, centrifuged at 1000 rpm for 10 min, and filtered with a 0.22 μm filter. Supernatants were stored and used for killing assays and fluorescence microscopy, respectively. Then, 10^6 CFU/mL of P. aeruginosa was added to a 10% diluted sputum supernatant, followed by 10 μM peptides. The mixture was incubated at 37 °C for 1 h and then diluted and plated on freshly made LB agar plates.

Q: For `CC(C)C[C@H](NC(=O)[C@H](CC(C)C)NC(=O)[C@@H](CC(C)C)NC(=O)[C@@H](CC(C)C)NC(=O)[C@H](CC(C)C)NC(=O)[C@@H](CC(C)C)NC(=O)[C@H](CC(C)C)NC(=O)[C@H](CC(C)C)NC(=O)[C@@H](CCCCN)NC(=O)[C@H](CCCCN)NC(=O)[C@@H](N)CCCCN)C(=O)N[C@@H](CC(C)C)C(=O)N[C@H](CCCCN)C(=O)N[C@@H](CCCCN)C(=O)N[C@@H](CCCCN)C(N)=O` (stereo in doubt) [Seg5D], which “degradation in CF sputum” value ([1]; 6 h, RP-HPLC) is on record?
A: The value was “protected entirely from degradation”.

Q: And the metabolised at 48 h, 100 μM [2]?
A: The metabolised at 48 h, 100 μM was about 30%.

Q: With `CC(C)C[C@H](NC(=O)[C@H](CC(C)C)NC(=O)[C@@H](CCCCN)NC(=O)[C@H](CC(C)C)NC(=O)[C@H](CC(C)C)NC(=O)[C@H](CCCCN)NC(=O)[C@@H](CCCCN)NC(=O)[C@@H](CC(C)C)NC(=O)[C@H](CC(C)C)NC(=O)[C@@H](CCCCN)NC(=O)[C@H](CCCCN)NC(=O)[C@H](CC(C)C)NC(=O)[C@@H](CC(C)C)NC(=O)[C@H](CCCCN)NC(=O)[C@@H](N)CC(C)C)C(N)=O` (stereo in doubt) [Amp1D] as the molecule, how does the MIC [3] read?
A: The MIC was at most 3.12 µM.

Q: What about the “inhibition of biofilm formation” value [4] of the same molecule?
A: Its value is about 50%.

Q: And the “degradation in CF sputum” value ([1]; 6 h, RP-HPLC)?
A: The value was “protected entirely from degradation”.

Q: What about the metabolised at 48 h, 100 μM [2] of the same molecule?
A: The metabolised at 48 h, 100 μM was about 30%.

Q: What does the source list for `CC(C)C[C@H](NC(=O)[C@H](CC(C)C)NC(=O)[C@@H](CC(C)C)NC(=O)[C@H](CC(C)C)NC(=O)[C@H](CCCCN)NC(=O)[C@H](CCCCN)NC(=O)[C@@H](CCCCN)NC(=O)[C@@H](CCCCN)NC(=O)[C@H](CCCCN)NC(=O)[C@@H](CCCCN)NC(=O)[C@H](CC(C)C)NC(=O)[C@H](CC(C)C)NC(=O)[C@@H](CC(C)C)NC(=O)[C@H](CC(C)C)NC(=O)[C@@H](N)CC(C)C)C(N)=O` (stereo in doubt) [Seg6D]?
A: MIC [3]: ≤ 12.5 µM; degradation in CF sputum ([1]; 6 h, RP-HPLC): protected entirely from degradation; metabolised at 24 h, 100 μM [2]: ~30%; metabolised at 48 h, 100 μM [2]: ~30%

Q: For `CC(C)C[C@H](NC(=O)[C@H](CC(C)C)NC(=O)[C@H](CCCCN)NC(=O)[C@H](CC(C)C)NC(=O)[C@H](CC(C)C)NC(=O)[C@H](CCCCN)NC(=O)[C@H](CCCCN)NC(=O)[C@H](CC(C)C)NC(=O)[C@H](CC(C)C)NC(=O)[C@H](CCCCN)NC(=O)[C@H](CCCCN)NC(=O)[C@H](CC(C)C)NC(=O)[C@H](CC(C)C)NC(=O)[C@H](CCCCN)NC(=O)[C@@H](N)CC(C)C)C(N)=O` [Amp1L], which metabolised at 3 h, 100 μM [2] is on record?
A: The metabolised at 3 h, 100 μM was about 70%.

Q: What about the metabolised at 6 h, 100 μM [2] of the same molecule?
A: The metabolised at 6 h, 100 μM was about 80%.

Q: And the “toxicity to mammalian cells” value [5]?
A: The value was “toxic to mammalian cells”.

Q: With `CC[C@H](C)[C@H](NC(=O)[C@H](CCCCN)NC(=O)[C@H](CCC(=O)O)NC(=O)[C@H](CCCCN)NC(=O)[C@H](CO)NC(=O)[C@H](CCCCN)NC(=O)[C@H](CCCNC(=N)N)NC(=O)[C@H](Cc1ccccc1)NC(=O)[C@H](Cc1ccccc1)NC(=O)[C@H](CC(=O)O)NC(=O)CNC(=O)[C@H](CC(C)C)NC(=O)[C@@H](N)CC(C)C)C(=O)NCC(=O)N[C@@H](CCCCN)C(=O)N[C@@H](CCC(=O)O)C(=O)N[C@@H](Cc1ccccc1)C(=O)N[C@@H](CCCCN)C(=O)N[C@@H](CCCNC(=N)N)C(=O)N[C@H](C(=O)N[C@H](C(=O)N[C@@H](CCC(N)=O)C(=O)N[C@@H](CCCNC(=N)N)C(=O)N[C@H](C(=O)N[C@@H](CCCCN)C(=O)N[C@@H](CC(=O)O)C(=O)N[C@@H](Cc1ccccc1)C(=O)N[C@@H](CC(C)C)C(=O)N[C@@H](CCCNC(=N)N)C(=O)N[C@@H](CC(N)=O)C(=O)N[C@@H](CC(C)C)C(=O)N[C@H](C(=O)N1CCC[C@H]1C(=O)N[C@@H](CCCNC(=N)N)C(=O)N[C@H](C(=O)N[C@@H](CCC(=O)O)C(=O)N[C@@H](CO)C(N)=O)[C@@H](C)O)C(C)C)[C@@H](C)CC)C(C)C)[C@@H](C)CC` [LL-37, reference compound] as the molecule, how does the “degradation in CF sputum” value ([1]; 30 min, residual peptide by RP-HPLC vs no incubation) read?
A: Its value is “fully degraded”.

Q: What about the killing rate ([6]; PAO1, 10% mixed CF sputum, 10^6 CFU/mL, colony count vs untreated) of the same molecule?
A: The killing rate was 11.48%.

Q: What about the killing rate ([6]; control isolate 895 in 895 CF diluted sputum) of the same molecule?
A: Its killing rate is 97.57%.

Q: What about the killing rate ([6]; isolate 24, 10% mixed CF sputum, 10^6 CFU/mL, colony count vs untreated) of the same molecule?
A: Its killing rate is 13.23%.

Q: What about the killing rate ([6]; isolate 46, 10% mixed CF sputum, 10^6 CFU/mL, colony count vs untreated) of the same molecule?
A: Its killing rate is 11.73%.

Q: And the killing rate ([6]; isolate 82, 10% mixed CF sputum, 10^6 CFU/mL, colony count vs untreated)?
A: The killing rate was 34.24%.
